This is an account of results in paper PMC13379236 (Cell reports, 2026).

One test deals with NLRP1. To be noted: treatment of cells with pan-CRL inhibitor; cited from earlier work. From the text: Human NLRP1 (NACHT, LRR, and PYD domains-containing protein 1) has recently been characterized as a substrate of CRL2 in complex with either ZYG11B or ZER1.[7] NLRP1 is an effector-triggered immunity (ETI) sensor of pathogen-encoded proteases, wherein cleavage of NLRP1 in mice and humans by specific bacterial or viral proteases results in inflammasome formation, which leads to subsequent release of pro-inflammatory cytokines such as IL-1b and IL-18 and pyroptotic cell death.[7]-[10] The mechanism by which this occurs, termed functional degradation, depends on specific recognition, ubiquitinati ...

Test [1] addresses T1, ZYG11B-EloBC (Homo sapiens, UniProt Q9C0D3). Briefly: MBP pull-down with substrate receptor module ZYG11B-EloBC. It counts as binding. To be noted: MBP fusion on amylose resin, prey 1:1, 1 h, 4°C; SDS-PAGE, Coomassie. The protocol: Peptides corresponding to […] and […] were appended to the N terminus of maltose-binding protein (MBP) and cloned into pET-28a containing an N-terminal His6 tag followed by a TEV protease cleavage site. Fusion proteins were purified by Ni-NTA chromatography, digested with TEV protease, and passed over Ni-NTA resin again to remove TEV and the cleaved His6 tag. Final purification was performed by size-exclusion chromatography. The resulting proteins contained MBP fused to N-terminal Gly/N-degron overhangs. For pulldown experiments, approximately 100 μg MBP fusion protein was immobilized on 50 μL amylose resin and incubated with prey protein at a 1:1 molar ratio for 1 h at 4°C. Resin was washed three times, and bound proteins were eluted in sizing buffer supplemented with 20 mM maltose. Samples were analyzed by SDS-PAGE and Coomassie staining. Pulldown efficiency was quantified as the ratio of MBP–NLRP1 degron signal to ZYG11B signal in the same gel lane. […]
incubation of full-length Cyclin B1 without Gly/N-degron with ZYG11B–EloBC (top). SDS–PAGE analysis of the indicated fractions from the Superose 6 column (dashed lines) confirms complex formation (bottom) C, fluorescence anisotropy binding of ZYG11B-EloBC to indicated fluorescein-labeled peptides (left) and fitted equilibrium dissociation constants (right). […]

The test system of another test is CRL2^ZYG11B. Briefly: MBP pull-down with E3 holoenzyme CRL2^ZYG11B. It counts as binding, human. The conditions noted are these: MBP fusion on amylose resin, prey 1:1, 1 h, 4°C; SDS-PAGE, Coomassie. The protocol: Bacmids were generated in DH10Bac cells and transfected into Sf9 cells to produce recombinant baculovirus, which was amplified through two additional rounds. Four liters of Sf9 cells at 2 × 10 ^6 cells/mL were infected with amplified virus and harvested after 60 h. Cell pellets were resuspended in buffer B (50 mM Tris-HCl, 500 mM NaCl, 0.5 mM EDTA, 0.5 mM TCEP, and 1 mM PMSF) supplemented with protease inhibitors, lysed by sonication, and clarified by ultracentrifugation at 40,000 rpm for 1 h. The supernatant was incubated with Strep-Tactin Sepharose resin for 2 h, washed extensively with buffer B, and eluted with 20 mM HEPES, pH 7.5, 300 mM NaCl, 0.5 mM TCEP, and 10 mM D-desthiobiotin. The complex was further purified by size-exclusion chromatography in the same sizing buffer used for ZYG11B–EloBC.
To reconstitute the pentameric CRL2–ZYG11B complex (ZBCC), purified ZYG11B–EloBC and CUL2/Rbx1 complexes were mixed at a 1:1 molar ratio and incubated on ice for 30 min. […]
Peptides corresponding to […] and […] were appended to the N terminus of maltose-binding protein (MBP) and cloned into pET-28a containing an N-terminal His6 tag followed by a TEV protease cleavage site. […] Samples were analyzed by SDS-PAGE and Coomassie staining. Pulldown efficiency was quantified as the ratio of MBP–NLRP1 degron signal to ZYG11B signal in the same gel lane. […]

Test [2] deals with CUL5/RBX2 with ZYG11B-EloBC. It counts as binding, human.
For test [3], the target named is T1, ZYG11B-EloBC. It counts as binding.

T1 sequence (Q9C0D3 whole entry, the tested form may be a part): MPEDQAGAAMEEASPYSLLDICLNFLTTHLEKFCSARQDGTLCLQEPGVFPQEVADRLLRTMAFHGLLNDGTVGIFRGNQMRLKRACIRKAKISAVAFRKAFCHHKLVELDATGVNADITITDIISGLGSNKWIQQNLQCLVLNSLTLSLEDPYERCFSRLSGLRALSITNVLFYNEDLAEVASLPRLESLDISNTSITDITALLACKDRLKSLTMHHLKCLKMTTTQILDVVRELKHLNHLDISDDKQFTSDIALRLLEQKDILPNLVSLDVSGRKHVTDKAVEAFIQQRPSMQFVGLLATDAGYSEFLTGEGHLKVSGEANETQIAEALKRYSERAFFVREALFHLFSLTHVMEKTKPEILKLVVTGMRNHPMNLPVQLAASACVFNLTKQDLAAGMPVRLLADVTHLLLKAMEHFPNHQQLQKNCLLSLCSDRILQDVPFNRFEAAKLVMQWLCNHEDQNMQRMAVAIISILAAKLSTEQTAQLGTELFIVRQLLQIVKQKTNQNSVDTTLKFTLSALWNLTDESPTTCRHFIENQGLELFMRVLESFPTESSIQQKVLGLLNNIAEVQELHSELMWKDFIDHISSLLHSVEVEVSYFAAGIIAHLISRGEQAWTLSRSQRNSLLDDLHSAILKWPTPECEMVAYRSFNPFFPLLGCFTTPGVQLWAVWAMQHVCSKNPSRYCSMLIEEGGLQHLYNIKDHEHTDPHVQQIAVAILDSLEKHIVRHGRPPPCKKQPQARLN
T1 sequence (Q15370 whole entry partner, the tested form may be a part): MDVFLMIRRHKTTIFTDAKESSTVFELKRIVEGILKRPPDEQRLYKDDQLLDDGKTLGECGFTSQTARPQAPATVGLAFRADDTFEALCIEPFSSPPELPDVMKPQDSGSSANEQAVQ
T1 sequence (Q15369 17-112 partner limits assumed): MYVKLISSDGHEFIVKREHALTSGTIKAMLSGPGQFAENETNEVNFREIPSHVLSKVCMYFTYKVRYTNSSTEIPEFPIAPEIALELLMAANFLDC

Regarding `NS(=O)(=O)OC[C@@H]1C[C@@H](n2ccc3c(N[C@H]4CCc5ccccc54)ncnc32)C[C@@H]1O` [MLN4924], in the test on NLRP1, the “effect on HRV-mediated activation of NLRP1” value is reported as “impairs HRV-mediated activation of NLRP1”.

GSERRVLRQL [Degron-10]: the “interaction with ZYG11B-EloBC” value on ZYG11B-EloBC [1] is “interacted”. Moreover, the “interaction with CRL2^ZYG11B” value in the test with CRL2^ZYG11B is reported as “interacted”. Besides, in test [2], the “amount of CUL5/RBX2 retained compared to CUL2/RBX1” value is “reduced compared to CUL2/RBX1”.

Consider GSERRVLRQLPDTSG [chimera], for which the “co-purification / complex formation with ZYG11B-EloBC” value on ZYG11B-EloBC [3] is on record as “copurified with ZYG11B-EloBC”.

For the compound GSERRVLRQLPDTSGRRWRE [Degron-20], the “interaction with ZYG11B-EloBC” value at ZYG11B-EloBC [1] was “interacted”. The “interaction with CRL2^ZYG11B” value in the test with CRL2^ZYG11B is “interacted”. In test [2], the “amount of CUL5/RBX2 retained compared to CUL2/RBX1” value was “reduced compared to CUL2/RBX1”.
